Experimental data taken from patent US4457936A, “Use of hydroxyphenyl-thiazole-, -thiazoline- and -thiazolidine-carboxylic acids, for influencing the collagen metabolism” (Hoechst Aktiengesellschaft, priority 1980, dated 1984).

Target: prolyl hydroxylase (Homo sapiens, UniProt P13674)
Test: enzyme test, hydroxylation of insufficiently hydroxylated collagen by prolyl hydroxylase (cell-free)
Type: biochemical
Conditions: concentration at which the enzyme reaction is inhibited by 50%; first part of Table; read-out: DI50 propyl-hydroxylase
From the text: (§1) The inhibiting effect of the substances in accordance with the invention on collagen biosynthesis can be examined in an enzyme test analogous to the method of B. Peterkofsky and R. DiBlasio [Anal. Biochem. 66, 279-286 (1975)]. In this test, insufficiently hydroxylated collagen is enzymatically hydroxylated in the presence of molecular oxygen, iron-II ions, alpha-ketoglutaric and ascorbic acid.
(§2) As enzymes, prolyl hydroxylase or lysyl hydroxylase can be used and applied in a cell-free medium. The effect of the substances of the invention can be measured furthermore in cell and tissue cultures.
(§3) The inhibiting effect (DI50) is that concentration at which the enzyme reaction is inhibited by 50%.

prolyl hydroxylase, sequence (P13674 18-534): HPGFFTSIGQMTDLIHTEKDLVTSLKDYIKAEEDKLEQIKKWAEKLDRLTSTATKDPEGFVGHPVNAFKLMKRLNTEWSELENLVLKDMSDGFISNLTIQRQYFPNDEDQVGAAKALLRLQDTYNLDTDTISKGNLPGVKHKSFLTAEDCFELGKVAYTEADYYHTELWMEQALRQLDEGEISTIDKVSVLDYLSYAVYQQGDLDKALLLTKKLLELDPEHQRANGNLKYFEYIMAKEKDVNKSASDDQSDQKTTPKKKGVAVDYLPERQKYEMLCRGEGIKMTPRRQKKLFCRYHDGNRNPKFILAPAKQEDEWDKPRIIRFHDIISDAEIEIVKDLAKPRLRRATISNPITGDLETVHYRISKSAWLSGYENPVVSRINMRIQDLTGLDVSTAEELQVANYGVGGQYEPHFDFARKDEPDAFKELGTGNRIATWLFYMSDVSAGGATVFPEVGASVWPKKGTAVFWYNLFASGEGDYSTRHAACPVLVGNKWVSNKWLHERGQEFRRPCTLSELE
prolyl hydroxylase, sequence (P07237 18-508 partner): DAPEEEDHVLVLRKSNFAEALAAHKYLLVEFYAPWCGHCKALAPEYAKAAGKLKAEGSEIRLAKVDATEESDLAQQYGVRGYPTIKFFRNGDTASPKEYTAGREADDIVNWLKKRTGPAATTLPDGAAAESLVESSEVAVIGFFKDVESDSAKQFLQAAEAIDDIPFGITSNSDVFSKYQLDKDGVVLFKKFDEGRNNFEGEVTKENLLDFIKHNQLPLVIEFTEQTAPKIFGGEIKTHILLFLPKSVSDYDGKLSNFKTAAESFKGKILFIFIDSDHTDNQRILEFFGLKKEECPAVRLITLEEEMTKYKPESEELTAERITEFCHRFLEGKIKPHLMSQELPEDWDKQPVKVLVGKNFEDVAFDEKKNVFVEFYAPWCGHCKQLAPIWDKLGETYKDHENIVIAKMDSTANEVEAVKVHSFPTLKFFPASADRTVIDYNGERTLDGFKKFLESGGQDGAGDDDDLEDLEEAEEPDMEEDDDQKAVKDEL

IC50 | SMILES
28 µM | Cc1ccc(O)c(C2=NC(C(=O)O)CS2)c1 (centres unmarked)
20 µM | O=C(O)C1CSC(c2ccccc2O)=N1 (centres unmarked)
16 µM | O=C(O)C1CSC(c2cc(Cl)ccc2O)=N1 (centres unmarked)
28 µM | O=C(O)[C@@H]1CSC(c2ccccc2O)N1 (some centres unmarked)
50 to 100 µM | O=C(O)[C@@H]1CSC(c2cc(Cl)cc(Cl)c2O)N1 (some centres unmarked)
42 µM | Cc1ccc(O)c(-c2nc(C(=O)O)cs2)c1

Further lines, the compound ahead of its results:

SMILES | IC50
O=C(O)C1CSC(c2ccc(O)cc2O)=N1 (centres unmarked) | 26 µM
O=C(O)[C@@H]1CSC(c2cc([N+](=O)[O-])ccc2O)N1 (some centres unmarked) | 50 to 100 µM
O=C(O)[C@@H]1CSC(c2cc(Br)cc(Br)c2O)N1 (some centres unmarked) | 50 to 100 µM

Same assay, conditions: second part of Table, P; read-out: DI50 P.circle.

IC50 | SMILES
26 µM | Cc1ccc(O)c(-c2nc(C(=O)O)c(-c3ccccc3)s2)c1
27 µM | O=C(O)c1nc(-c2ccc(O)cc2O)sc1-c1ccccc1
67 µM | Cc1ccc(O)c(-c2nc(C(=O)O)c(C(=O)O)s2)c1
71 µM | O=C(O)c1csc(-c2cc(Cl)ccc2O)n1
5.6 µM | Nc1ccc(O)c(-c2nc(C(=O)O)cs2)c1
28.2 µM | O=C(O)c1csc(-c2cc(Cl)c3ccccc3c2O)n1

Target: T1, lysyl hydroxylase (Homo sapiens, UniProt Q02809)
T1 sequence (Q02809 19-727): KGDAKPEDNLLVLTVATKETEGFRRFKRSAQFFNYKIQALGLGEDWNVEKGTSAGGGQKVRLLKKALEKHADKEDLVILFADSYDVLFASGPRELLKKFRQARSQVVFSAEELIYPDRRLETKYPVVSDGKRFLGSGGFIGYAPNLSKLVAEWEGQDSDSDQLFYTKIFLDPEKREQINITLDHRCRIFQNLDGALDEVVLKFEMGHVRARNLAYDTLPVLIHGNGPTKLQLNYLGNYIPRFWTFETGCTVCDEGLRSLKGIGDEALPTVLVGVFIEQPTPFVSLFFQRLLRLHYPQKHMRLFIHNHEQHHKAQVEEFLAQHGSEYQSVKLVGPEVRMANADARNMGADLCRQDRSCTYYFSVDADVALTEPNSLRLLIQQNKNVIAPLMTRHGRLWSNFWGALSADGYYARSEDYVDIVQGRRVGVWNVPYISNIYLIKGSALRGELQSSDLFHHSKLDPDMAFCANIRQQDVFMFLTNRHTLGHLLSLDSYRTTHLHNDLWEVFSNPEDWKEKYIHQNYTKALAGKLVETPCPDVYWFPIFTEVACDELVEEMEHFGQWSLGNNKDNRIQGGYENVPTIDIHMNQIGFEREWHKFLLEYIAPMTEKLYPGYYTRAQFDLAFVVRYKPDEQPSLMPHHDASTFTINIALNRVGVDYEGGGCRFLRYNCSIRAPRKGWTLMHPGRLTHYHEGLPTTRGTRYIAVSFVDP
Test: enzyme test, hydroxylation of insufficiently hydroxylated collagen by lysyl hydroxylase (cell-free)
Type: biochemical
Conditions: concentration at which the enzyme reaction is inhibited by 50%; first part of Table; read-out: DI50 lysylhydroxylase
From the text: as §1, §2, §3

IC50 | SMILES
28 µM | Cc1ccc(O)c(C2=NC(C(=O)O)CS2)c1 (centres unmarked)
28 µM | O=C(O)C1CSC(c2ccccc2O)=N1 (centres unmarked)
12 µM | O=C(O)C1CSC(c2cc(Cl)ccc2O)=N1 (centres unmarked)
28 µM | O=C(O)[C@@H]1CSC(c2ccccc2O)N1 (some centres unmarked)
50 to 100 µM | O=C(O)[C@@H]1CSC(c2cc(Cl)cc(Cl)c2O)N1 (some centres unmarked)
67 µM | Cc1ccc(O)c(-c2nc(C(=O)O)cs2)c1

The next lines start with the compound.

SMILES | IC50
O=C(O)C1CSC(c2ccc(O)cc2O)=N1 (centres unmarked) | 16 µM
O=C(O)[C@@H]1CSC(c2cc([N+](=O)[O-])ccc2O)N1 (some centres unmarked) | 50 to 100 µM
O=C(O)[C@@H]1CSC(c2cc(Br)cc(Br)c2O)N1 (some centres unmarked) | 10 µM

Same assay, conditions: second part of Table, column L (circled); read-out: DI50 L.circle.

IC50 | SMILES
34 µM | Cc1ccc(O)c(-c2nc(C(=O)O)c(-c3ccccc3)s2)c1
21 µM | O=C(O)c1nc(-c2ccc(O)cc2O)sc1-c1ccccc1
144 µM | Cc1ccc(O)c(-c2nc(C(=O)O)c(C(=O)O)s2)c1
188 µM | O=C(O)c1csc(-c2cc(Cl)ccc2O)n1
29 µM | Nc1ccc(O)c(-c2nc(C(=O)O)cs2)c1
31.6 µM | O=C(O)c1csc(-c2cc(Cl)c3ccccc3c2O)n1

Test system: collagen biosynthesis
Test: inhibiting effect in cell culture
Type: cell-based
Conditions: read-out: DI50 cell culture
From the text: as §2, §3

IC50 | SMILES
34 µM | Cc1ccc(O)c(C2=NC(C(=O)O)CS2)c1 (centres unmarked)
17 µM | O=C(O)C1CSC(c2cc(Cl)ccc2O)=N1 (centres unmarked)
